Earlier results as cited in patent US6420552B1, “Syntheses of 4-alkyl chromogenic glycosides and 7-alkyl chromogenic glycosides of N-acetylneuraminic acids” (priority 1999, dated 2002).

Columns and labels:
[1] = system: respiratory syncytial adenovirus; conditions: substrate activity, result in words
[2] = system: neuraminidase activity of parainfluenza types 1 and 2; conditions: substrate activity, result in words
[3] = system: neuraminidase activity of influenza types A and B; conditions: substrate activity, result in words
[4] = molecular target: neuraminidase from Vibrio cholerae (Vibrio cholerae serotype O1, UniProt P0C6E9); conditions: 4-methylumbelliferyl α ketosides
neuraminidase from Vibrio cholerae, sequence (P0C6E9 25-781): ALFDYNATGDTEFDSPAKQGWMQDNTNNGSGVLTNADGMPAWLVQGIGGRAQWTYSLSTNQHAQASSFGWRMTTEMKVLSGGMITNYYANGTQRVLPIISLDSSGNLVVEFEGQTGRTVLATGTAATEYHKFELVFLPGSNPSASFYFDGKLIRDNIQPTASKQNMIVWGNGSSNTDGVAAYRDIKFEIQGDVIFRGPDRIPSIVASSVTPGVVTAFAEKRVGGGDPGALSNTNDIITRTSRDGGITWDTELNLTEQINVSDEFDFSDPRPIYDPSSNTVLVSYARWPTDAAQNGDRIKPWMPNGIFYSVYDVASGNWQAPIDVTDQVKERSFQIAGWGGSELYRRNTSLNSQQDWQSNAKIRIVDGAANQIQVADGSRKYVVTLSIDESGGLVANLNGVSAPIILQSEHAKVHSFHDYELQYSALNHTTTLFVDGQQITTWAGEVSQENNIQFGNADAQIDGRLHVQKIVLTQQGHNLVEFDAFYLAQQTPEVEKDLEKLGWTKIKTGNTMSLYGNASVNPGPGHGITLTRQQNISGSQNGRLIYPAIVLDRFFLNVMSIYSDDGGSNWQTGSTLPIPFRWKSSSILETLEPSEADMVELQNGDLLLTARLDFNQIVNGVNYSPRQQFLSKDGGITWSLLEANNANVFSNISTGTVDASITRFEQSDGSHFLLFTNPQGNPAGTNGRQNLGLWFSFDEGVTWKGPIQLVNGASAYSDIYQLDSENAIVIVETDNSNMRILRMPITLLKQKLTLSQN

Compound | hydrolysis by respiratory syncytial adenovirus [1] | hydrolysis / colour development by neuraminidase activity of parainfluenza types 1 and 2 [2] | hydrolysis / colour development by neuraminidase activity of influenza types A and B [3] | glycosidic hydrolysis by neuraminidase from Vibrio cholerae [4]
5-bromo-3-indolyl 4-O-methyl Neu5Ac ketoside | not at all | acted upon | acted upon | –
CC(=O)N[C@@H]1CCC(O)(C(=O)O)O[C@H]1C[C@H](O)CO (stereo partly shown) [4,7-dideoxy Neu5Ac] | – | – | – | significantly slowed
COC1CC(Oc2c[nH]c3ccc(Br)cc23)(C(=O)O)OC(C(OC)C(O)CO)C1NC(C)=O (stereo not shown) [5-bromo-3-indolyl 4,7-di-O-methyl Neu5Ac ketoside] | – | – | selectively hydrolyzed | –
CC(=O)N[C@H]1[C@H]([C@@H](O)[C@@H](O)CO)OC(O)(C(=O)O)C[C@@H]1O (stereo partly drawn) [7,8-(bis)epi Neu5Ac] | – | – | – | significantly slowed
CC(=O)N[C@H]1[C@H](C[C@H](O)CO)OC(O)(C(=O)O)C[C@@H]1O (stereo partly shown) [7-deoxy Neu5Ac] | – | – | – | significantly slowed
